Tests used:
I338G v-Src = biological target: T1, I338G v-Src (Rous sarcoma virus subgroup A, UniProt P00524, DEL77-225/I338G); assay: biochemical; type: biochemical; conditions: Table 3; read-out: IC50, 1338G v-Src
T1 construct: screened against the catalytic domain of the target kinase, I338G v-Src; made in house; host or cells: E. coli DH5a, pGEX-KT

WT v-Src = biological target: T2, WT v-Src (Rous sarcoma virus subgroup A, UniProt P00524, DEL77-225); assay: biochemical; type: biochemical; conditions: Table 3, wild type; read-out: IC50, vSrc
T2 construct: mutant of the v-Src catalytic domain, (the XD4 fragment) were made as glutathione S-transferase (GST) fusion proteins; made in house; host or cells: E. coli (DH5a), pGEX-KT

[1] = tested on: panel of wild-type protein kinases (v-src, Fyn, c-Abl, CAMK IIα, CDK2); assay: In vitro inhibition, panel of wild-type protein kinases; type: biochemical; conditions: none inhibited below this concentration
[2] = tested on: I338G v-Src, T339G Fyn, T315A Abl, F89G CAMK IIα and F80G CDK2; assay: In vitro inhibition, panel of engineered protein kinases; type: biochemical
Cdc28-as1 (F88G Cdc28) = biological target: T3, Cdc28-as1 (F88G Cdc28) (Saccharomyces cerevisiae, UniProt P00546, F88G); assay: In vitro sensitivity of Cdc28 kinases to PP1 derivatives (Example 19); type: biochemical; conditions: read-out: IC50, engineered Cdc28
T3 construct: made in house

cdc28-as1 strain = assay: Yeast growth; type: cell-based, Saccharomyces cerevisiae
Procedure: (§1) Yeast Plasmid and Strain Construction: Media and genetic and microbial techniques were essentially as described (148, 153). All strains were derivatives of W30-3 (ura3-a, leu2-3, 112, trpl-1, his3-11,15, ade2-1, can1-100, GAL+). All strains were grown at 23° C. unless otherwise noted. To create cdc28-as1, the CDC28 coding sequence and 400 bp of 5′-and 386 bp of 3′-flanking DNA was PCR-amplified from genomic DNA and ligated into pRS306 to make pJAU1. The F88G mutation was engineered by oligonucleotide-directed mutagenesis of pJAU1. The plasmid was integrated into the wild-type CDC28 locus following AflII digestion by a pop-in-pop-out strategy as described (148, 153).
as §1, with “To examine the function of Cdc28 in vivo, a yeast strain in which the wild-type copy of CDC28 was replaced by cdc28-as1 was constructed.” for “Yeast Plasmid and Strain Construction:”, “W303 (ura3-1,” for “W30-3 (ura3-a,”, “cdc28-as1 ,” for “cdc28-as1,”, “5′- and” for “5′-and”, “AfII” for “AflII”

wild-type strain (CDC28) = assay: Yeast growth; type: cell-based, Saccharomyces cerevisiae
Procedure: as §1
as §1, with “To examine the function of Cdc28 in vivo, a yeast strain in which the wild-type copy of CDC28 was replaced by cdc28-as1 was constructed.” for “Yeast Plasmid and Strain Construction:”, “W303 (ura3-1,” for “W30-3 (ura3-a,”, “cdc28-as1 ,” for “cdc28-as1,”, “5′- and” for “5′-and”, “AfII” for “AflII”

[3] = tested on: Fus3-as1 expressing yeast; assay: Yeast mating assay for Fus3 function; type: cell-based, Saccharomyces cerevisiae; conditions: 50 μM
[4] = tested on: wild-type Fus3 expressing yeast; assay: Yeast mating assay for Fus3 function; type: cell-based, Saccharomyces cerevisiae; conditions: all concentrations up to 50 μM
[5] = tested on: S. cerevisiae expressing wild-type Fus3, Fus3-as1, or no Fus3; assay: Non-selective cytotoxicity control, mating cultures plated on YPD; type: cell-based, Saccharomyces cerevisiae; conditions: any of the three strains
Cdc28-as1 · MBP-Clb2 = biological target: T4, Cdc28-as1 · MBP-Clb2 (Saccharomyces cerevisiae, UniProt P00546, F88G); assay: 1-NM-PP1 IC50, Histone H1 kinase assay; type: biochemical; conditions: 1 MM ATP
T4 construct: made in house; host or cells: Sf9 insect cells, baculovirus, co-infected with Cak1-HA3 (Cdc28-as1-His6); bacteria (MBP-Clb2)
Procedure: Phosphate incorporation was determined at each inhibitor concentration by scintillation counting.
Cdc28-as1 is highly sensitive to 1-NM-PP1 in vitro and is a slightly weakened kinase.

cdc28-as1 cells [6] = assay: DNA content (flow cytometry) and morphology of yeast cells; type: cell-based, Saccharomyces cerevisiae; conditions: for cell cycle effect (G2/M DNA content, large hyperpolarized buds): asynchronous cells
Procedure: DNA flow cytometry: Approximately 1×10^7 cells for each sample were fixed in 70% ethanol, resuspended in 50 mM Tris-HCl pH 8.0, briefly sonicated, digested with 2mg/ml RNase for 2 hours at 37° C., and resuspended in 0.2 ml protease solution (5 mg/ml pepsin. 0.5% concentrated HCl ) and digested for 45 minutes at 37° C. DNA was stained with 1μM Sytox Green (Molecular Probes) in 50 mM Tris-HCl pH 7.5 and 20,000 cells from each sample were scanned with a FACScan FACS machine (Becton-Dickinson).
Thus, it appears possible to titrate the level of Cdc28-as1 activity in vivo, allowing the identification of cell cycle events that are differentially sensitive to decreases in the catalytic activity of Cdc28.
When cdc28-as1 cells were synchronized in G1 with the yeast mating pheromone, α-factor factor, and then released into fresh media containing 500 nM 1-NM-PP 1, initiation of budding and DNA synthesis were delayed about 30 to 60 minutes, while accumulation of the mitotic cyclin Clb2 was delayed 60 to 90 minutes. […] Thus, cells treated with low concentrations of the inhibitor are slightly delayed during progression through early stages of the cell cycle, but eventually arrest due to a failure to assemble a mitotic spindle and enter mitosis.
These cells eventually budded after 180 to 240 minutes and arrested with a IC DNA content, large hyperpolarized buds, a single DNA mass in the mother cell, and an interphase astral microtubule array.

[7] = tested on: cdc28-as1 strain lacking PCL1 and PCL2; assay: Budding and DNA content after release from G1; type: cell-based, Saccharomyces cerevisiae; conditions: G1 synchronized, released into 5,000 nM
Procedure: Pho85, a Cdk that is closely related to Cdc28, has been implicated in the initiation of budding in S. cerevisiae (128, 129). Therefore, the budding observed in cdc28-as1 cells released into 5,000 nM 1-NM-PP1 due to residual Cdc28-as1 activity or due to Pho85 activity was investigated. A cdc28-as1 strain lacking PCL1 and PCL2, which encode the two G1 activating cyclins of Pho85 were constructed. […] It was concluded that Pc11- and Pc12-associated Pho85 activity, and not residual Cdc28 activity, are responsible for the greatly delayed budding observed in cdc28-as1 cells treated with high concentrations of inhibitor.

cdc28-as1 cells [8] = assay: Genome-wide transcription, oligonucleotide DNA arrays; type: cell-based, Saccharomyces cerevisiae
From the text: (§2) Error bars represent standard errors of the means.
(§3) Changes were deemed significant if they were greater than or equal to 2-fold or if the transcript changed present/absent status (as indicated by Affymetrix software) in the following comparisons: for non-specific drug effects: CDC28+1-NM-PP1 vs. CDC28; for cdc28-as1 effects: cdc28-as1 vs. CDC28.

wild-type cells = assay: as above; type: cell-based, Saccharomyces cerevisiae
From the text: as §2, §3

[9] = G1 synchronized with α-factor, released into 500 nM
[10] = G1 synchronized, released into 5,000 nM

T3 sequence (P00546 whole entry F88G): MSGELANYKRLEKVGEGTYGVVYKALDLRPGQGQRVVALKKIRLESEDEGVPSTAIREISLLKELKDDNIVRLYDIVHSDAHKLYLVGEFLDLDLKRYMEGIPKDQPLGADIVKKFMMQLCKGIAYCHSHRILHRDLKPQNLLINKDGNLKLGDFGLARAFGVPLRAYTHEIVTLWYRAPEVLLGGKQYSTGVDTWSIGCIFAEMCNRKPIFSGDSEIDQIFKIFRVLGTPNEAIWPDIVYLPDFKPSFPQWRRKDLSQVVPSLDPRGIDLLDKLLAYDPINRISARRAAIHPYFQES
T3 sequence (P24869 whole entry, further chain): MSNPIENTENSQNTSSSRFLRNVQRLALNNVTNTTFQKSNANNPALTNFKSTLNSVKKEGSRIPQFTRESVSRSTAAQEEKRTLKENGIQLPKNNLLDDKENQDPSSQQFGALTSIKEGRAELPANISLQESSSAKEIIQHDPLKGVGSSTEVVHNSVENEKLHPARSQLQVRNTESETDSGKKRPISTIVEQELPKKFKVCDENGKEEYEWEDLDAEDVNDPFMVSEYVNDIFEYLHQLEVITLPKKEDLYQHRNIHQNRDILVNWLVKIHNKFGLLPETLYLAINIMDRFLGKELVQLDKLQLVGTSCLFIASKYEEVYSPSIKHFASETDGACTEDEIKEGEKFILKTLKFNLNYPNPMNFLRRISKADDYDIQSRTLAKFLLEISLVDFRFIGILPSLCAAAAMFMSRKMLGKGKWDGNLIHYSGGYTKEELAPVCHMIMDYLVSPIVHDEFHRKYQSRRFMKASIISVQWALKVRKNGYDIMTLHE
T4 sequence (P00546 whole entry F88G): as the sequence (P00546 whole entry F88G) above
T4 sequence (P24869 whole entry, further chain): as the sequence (P24869 whole entry, further chain) above

SMILES: CC(C)(C)n1nc(Cc2cccc3ccccc23)c2c(N)ncnc21 [Compound 6h, 4-amino-1-(tert-butyl)-3-(1′-naphthylmethyl)pyrazolo[3,4-d]pyrimidine]
- IC50 (I338G v-Src): 4.2 nM
- IC50 (WT v-Src): 28000 nM
- concentration at which wild-type kinases are inhibited [1]: ≥ 1 µM
- inhibition of engineered kinases (in words) [2]: the most potent inhibitor of every engineered kinase tested
- IC50 ([2]; within a 3 fold range, read-out: IC50 for all of the glycine mutants): < 10 nM
- IC50 (Cdc28-as1 (F88G Cdc28)): 3.9 nM
- growth of yeast which express Cdc28-as1 (cdc28-as1 strain): completely ablated
- inhibitor concentration for complete growth arrest (cdc28-as1 strain): above 500 nM
- IC50 (cdc28-as1 strain; in vivo, read-out: inhibitor concentration at which growth is inhibited 50%): 50 to 100 nM
- proliferation of wild-type cells (wild-type strain (CDC28)): unaffected by the inhibitor except at very high concentrations
- growth of wild-type strains (wild-type strain (CDC28); same concentrations): had no effect on the growth of wild-type strains
- decrease of Fus3-as1 mediated mating [3]: 85 fold
- mating efficiency [4]: no decrease in mating efficiency
- cfu/mL on YPD plates (non-selective cytotoxicity) [5]: No significant decrease in cfu/mL on YPD plates
- IC50 (Cdc28-as1 · MBP-Clb2): ~3 nM
- delay of accumulation of the mitotic cyclin Clb2 (cdc28-as1 cells [6]; [9]): 60 to 90 min
- delay of initiation of budding and DNA synthesis (cdc28-as1 cells [6]; [9]): 30 to 60 min
- terminal arrest phenotype (cdc28-as1 cells [6]; G1 synchronized, released into 500 nM): arrest with moderate Clb2 levels, highly hyperpolarized buds, and a G2M DNA content
- arrest phenotype (cdc28-as1 cells [6]; [10]): arrested with a IC DNA content and initially failed to bud
- time after which cells eventually budded (cdc28-as1 cells [6]; [10]): 180 to 240 min
- cell cycle effect (G2/M DNA content, large hyperpolarized buds) (cdc28-as1 cells [6]; 50 nM): delay
- cell cycle effect (G2/M DNA content, large hyperpolarized buds) (cdc28-as1 cells [6]; 500 nM): arrest
- cell cycle effect (cdc28-as1 cells [6]; asynchronous cells, 5,000 nM): non-uniform arrest that included unbudded GI cells as well as large-budded G2/M cells
- arrest phenotype [7]: arrested with a 1C DNA content and never budded, even after 6 hours
- G2/M transcription (cdc28-as1 cells [8]; 500 nM, 120 minutes): causes a drop in G2/M transcription
- down-regulated transcripts that are cell cycle-regulated (cdc28-as1 cells [8]; 500 nM, two hours): 60 transcripts
- down-regulated transcripts with peak expression at G2/M (cdc28-as1 cells [8]; 500 nM, two hours): 32 transcripts
- number of genes with […] or greater decreases (cdc28-as1 cells [8]; 500 nM, two hours): 66 genes
- number of genes with […] or greater increases (cdc28-as1 cells [8]; 500 nM, two hours): 38 genes
- down-regulation of the Cln-Cdc28 inhibitor Far 1 transcript (cdc28-as1 cells [8]; two-hour drug exposure): 20 fold
- effects on wild-type cell physiology (wild-type cells; 500 nM): has no significant effects on wild-type cell physiology
- number of genes whose transcription changed greater than two-fold (wild-type cells; 500 nM, 30 minutes): 6 genes
- share of genes whose transcription changed greater than two-fold (wild-type cells; 500 nM, 30 minutes): 0.1%
- number of genes changed (wild-type cells; 120 minutes): 3 genes

Source: patent publication US20030073218A1, “High affinity inhibitors for target validation and uses thereof” (Princeton University, priority 1999, published 2003)
